This assay deals with Coagulation Factor XIa protease (Homo sapiens (Human), UniProt P03951). The experiment in a line: Inhibition of Factor XIa detected by absorption photometry. The class given is biochemical. The following applies: absorbance at 405 nm, 10 minutes at 37° C. How it is done: Test Example 1: Biological Activity of the Compounds of the Present Invention on
The Inhibition of Factor XIa Detected by Absorption Photometry
1. Experimental Materials
Enzyme: Coagulation Factor XIa protease (Abcam, Art. No ab62411)
Substrate: Coagulation Factor XIa specific substrate (HYPHEN1310 med, Art. No. Biophen cs-21(66))
2. Experimental Procedure
20 mM of test compound dissolved in 100% DMSO was diluted to 200, 20, 2, 0.2, 0.02, 0.002 μM with 100% DMSO; 1 μl of the compound was added to each well in a 384-well plate, blank and control wells were replaced with DMSO. The plate was centrifuged to remove the compound to the bottom. 10 μl (2.5 μg/ml) of FXIa enzyme solution was added to each well, and 10 μl of buffer was added to the blank well. The plate was centrifuged to remove the enzyme solution to the bottom.
Finally, 10 μl of 2 mM substrate were added to each well, and the plate was centrifuged to remove the substrate solution to the bottom.
The plate was incubated for 10 minutes at 37° C.; and then the absorbance was measured at 405 nm.

pIC50: −log10 of the molar value.

Sequence of Coagulation Factor XIa protease (P03951 388-625): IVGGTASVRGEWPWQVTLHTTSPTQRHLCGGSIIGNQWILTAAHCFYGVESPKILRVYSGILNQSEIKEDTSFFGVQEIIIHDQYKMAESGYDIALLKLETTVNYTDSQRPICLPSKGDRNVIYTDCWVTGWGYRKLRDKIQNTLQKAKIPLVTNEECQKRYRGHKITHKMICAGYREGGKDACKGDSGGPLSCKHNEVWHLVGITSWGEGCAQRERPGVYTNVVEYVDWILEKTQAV
Sequence of Coagulation Factor XIa protease (P03951 19-387 partner): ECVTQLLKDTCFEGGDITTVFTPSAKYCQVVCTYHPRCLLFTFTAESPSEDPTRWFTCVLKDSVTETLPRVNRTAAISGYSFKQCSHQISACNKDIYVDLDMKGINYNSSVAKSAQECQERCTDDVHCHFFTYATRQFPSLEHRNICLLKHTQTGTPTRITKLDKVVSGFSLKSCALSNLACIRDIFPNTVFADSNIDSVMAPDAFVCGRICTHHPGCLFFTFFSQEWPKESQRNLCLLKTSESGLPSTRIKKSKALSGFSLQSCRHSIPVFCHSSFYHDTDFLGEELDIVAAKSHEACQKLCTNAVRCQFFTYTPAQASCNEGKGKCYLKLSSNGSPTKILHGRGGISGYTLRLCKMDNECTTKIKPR

`COc1cn(C(Cc2ccccc2C)C(=O)Nc2ccc(C(=O)O)cc2)c(=O)cc1-c1cc(Cl)ccc1C(C)=O` (stereo not drawn) [Example 66, 4-(2-(4-(2-acetyl-5-chlorophenyl)-5-methoxy-2-oxopyridin-1(2H)-yl)-3-(o-tolyl)propan amido)benzoic acid]: the negative logarithm of the IC50 (pIC50) was 7.47.
In turn, `CCCC(=O)c1ccc(Cl)cc1-c1cc(=O)n(C(Cc2ccccc2)C(=O)Nc2ccc(C(=O)O)cc2)cc1OC` (stereo not drawn) [Example 21, 4-(2-(4-(2-butyryl-5-chlorophenyl)-5-methoxy-2-oxopyridin-1 (2H)-yl)-3-phenylpropan amido)benzoic acid] had a pIC50 of 7.44.
For the molecule `COc1cn(C(Cc2cnn(C)c2)C(=O)Nc2ccc(C(=O)O)cc2)c(=O)cc1-c1cc(Cl)ccc1C(C)=O` (stereo not drawn) [Example 103, 4-(2-(4-(2-acetyl-5-chlorophenyl)-5-methoxy-2-oxopyridin-1(2H)-yl)-3-(1-methyl-1H-pyrazol-4-yl)propanamido)benzoic acid], the pIC50 is 7.15.
On to `COc1cn(C(Cc2ccccc2)C(=O)Nc2ccc3nn(C)cc3c2)c(=O)cc1-c1cc(Cl)ccc1C(C)=O` (stereo not drawn) [Example 18, 2-(4-(2-acetyl-5-chlorophenyl)-5-methoxy-2-oxopyridin-1(2H)-yl)-N-(2-methyl-2H-indazol-5-yl)-3-phenylpropanamide], for which the pIC50 is 7.25.
`COc1cn([C@@H](Cc2ccn(C)n2)C(=O)Nc2ccc(C(=O)O)cc2)c(=O)cc1-c1cc(Cl)ccc1C(C)=O` [Example 101, (S)-4-(2-(4-(2-acetyl-5-chlorophenyl)-5-methoxy-2-oxopyridin-1(2H)-yl)-3-(1-methyl-1H-pyrazol-3-yl)propanamido)benzoic acid] gave a pIC50 of 7.64.
In turn, `COc1cn([C@@H](CCOC(C)(C)C)C(=O)Nc2ccc(C(N)=O)cc2)c(=O)cc1-c1cc(Cl)ccc1C(C)=O` [Example 122, (S)-4-(2-(4-(2-acetyl-5-chlorophenyl)-5-methoxy-2-oxopyridin-1(2H)-yl)-4-(tert-butoxy)butanamido)benzamide] showed a pIC50 of 7.00.
For the molecule `COc1cn([C@@H](Cc2ccccc2)C(=O)Nc2ccc(C(=O)NC3CC3)cc2)c(=O)cc1-c1cc(Cl)ccc1C(C)=O` [Example 43, (S)-4-(2-(4-(2-acetyl-5-chlorophenyl)-5-methoxy-2-oxopyridin-1 (2H)-yl)-3-phenylpropanamido)-N-cyclopropylbenzamide], the pIC50 was 7.33.
Turning to `COc1cn([C@@H](CC2CCC2)C(=O)Nc2ccc(C(=O)O)cc2)c(=O)cc1-c1c(C(C)=O)ccc(Cl)c1F` [Example 161, (S)-4-(2-(4-(6-acetyl-3-chloro-2-fluorophenyl)-5-methoxy-2-oxopyridin-1(2H)-yl)-3-cyclobutylpropanamido)benzoic acid], the negative logarithm of the IC50 (pIC50) is 4.88.
Molecule `CCC(=O)c1ccc(Cl)cc1-c1cc(=O)n([C@H](CCOC(C)(C)C)C(=O)Nc2ccc3nccnc3c2)cc1OC` [Example 115, (R)-4-(tert-butoxy)-2-(4-(5-chloro-2-propionylphenyl)-5-methoxy-2-oxopyridin-1(2H)-yl)-N-(quinoxalin-6-yl)butanamide] gave a pIC50 below 5.00.
For `COc1cn(C(Cc2ccccc2Cl)C(=O)Nc2ccc(C(=O)O)cc2)c(=O)cc1-c1cc(Cl)ccc1C(C)=O` (stereo not drawn) [Example 70, 4-(2-(4-(2-acetyl-5-chlorophenyl)-5-methoxy-2-oxopyridin-1 (2H)-yl)-3-(2-chlorophenyl)propanamido)benzoic acid], the pIC50 was 7.27.
In turn, `COC(=O)Nc1ccc(NC(=O)[C@H](Cc2ccccc2)n2cc(OC)c(-c3cc(Cl)ccc3C(C)=O)cc2=O)cc1` [Example 12, methyl (S)-(4-(2-(4-(2-acetyl-5-chlorophenyl)-5-methoxy-2-oxopyridin-1(2H)-yl)-3-phenylpropanamido)phenyl)carbamate] had a pIC50 of 7.38.
`COc1cn(C(CC2CC2)C(=O)Nc2ccc(C(=O)O)cc2)c(=O)cc1-c1cc(Cl)ccc1C(C)=O` (stereo not drawn) [Example 167, 4-(2-(4-(2-acetyl-5-chlorophenyl)-5-methoxy-2-oxopyridin-1(2H)-yl)-3-cyclopropylpropanamido)benzoic acid] showed a pIC50 of 7.04.

The values are drawn from patent US10633375B2, “Oxopicolinamide derivative, preparation method therefor and pharmaceutical use thereof” (Jiangsu Hengrui Medicine Co., Ltd., priority 2016, dated 2020).
